From BindingDB's records for doi:10.1021/jm9903242 (Agouron Pharmaceuticals, 2000)

Assay: Antiviral activity using H1HeLa cells (ATCC) infected with HRV-14

| EC50 [µM] | SMILES |
| --- | --- |
| > 20 | NC(=O)c1ccc2c(c1)C=CC2=O [1-Oxo-1H-indene-5-carboxylic acid amide] |
| > 100 | CCOC(=O)/C=C/c1cc(O)cc(C(N)=O)c1 [3-(3-Carbamoyl-5-hydroxy-phenyl)-acrylic acid ethyl ester] |
| 100 | NC(=O)c1cccc(/C=C/C(=O)OCCc2ccccc2)c1 [3-(3-Carbamoyl-phenyl)-acrylic acid phenethyl ester] |
| > 71 | NC(=O)c1cccc(/C=C/C(=O)c2ccco2)c1 [3-(3-Furan-2-yl-3-oxo-propenyl)-benzamide] |
| 28 | NC(=O)c1cccc(/C=C/C(=O)c2ccccc2)c1 [3-(3-Oxo-3-phenyl-propenyl)-benzamide] |
| 32 | CC(=O)C=Cc1cccc(C(N)=O)c1 [3-(3-Oxo-but-1-enyl)-benzamide] |
| 1 | CCOC(=O)/C=C/c1cc(CN2CCN(c3ncccn3)CC2)cc(C(N)=O)c1 [3-[3-Carbamoyl-5-(4-pyrimidin-2-yl-piperazin-1-ylmethyl)-phenyl]-acrylic acid ethyl ester] |
| 5.8 | CCOC(=O)/C=C/c1cc(CN(CC)Cc2ccncc2)cc(C(N)=O)c1 [3-{3-Carbamoyl-5-[(ethyl-pyridin-4-ylmethyl-amino)-methyl]-phenyl}-acrylic acid ethyl ester] |

The next lines start with the molecule.

| SMILES | EC50 [µM] |
| --- | --- |
| CCOC(=O)/C=C/c1cc(CO)cc(C(N)=O)c1 [3-(3-Carbamoyl-5-hydroxymethyl-phenyl)-acrylic acid ethyl ester] | > 100 |
| CCOC(=O)/C(C#N)=C/c1cccc(C(N)=O)c1 [3-(3-Carbamoyl-phenyl)-2-cyano-acrylic acid ethyl ester] | > 100 |
| NC(=O)c1cccc(/C=C/C(=O)OCCO)c1 [3-(3-Carbamoyl-phenyl)-acrylic acid 2-hydroxy-ethyl ester] | 20 |
| NC(=O)c1cccc(/C=C/C(=O)OCc2ccccc2)c1 [3-(3-Carbamoyl-phenyl)-acrylic acid benzyl ester] | 5.6 |
| CCOC(=O)/C=C/c1cccc(C(N)=O)c1 [3-(3-Carbamoyl-phenyl)-acrylic acid ethyl ester] | 15.9 |
| COC(=O)/C=C/c1cccc(C(N)=O)c1 [3-(3-Carbamoyl-phenyl)-acrylic acid methyl ester] | 150 |
| NC(=O)c1cccc(/C=C/C(=O)c2ccccn2)c1 [3-(3-Oxo-3-pyridin-2-yl-propenyl)-benzamide] | 50 |
| CCOC(=O)/C=C/c1ccc(OCc2ccccc2)c(C(N)=O)c1 [3-(4-Benzyloxy-3-carbamoyl-phenyl)-acrylic acid ethyl ester] | > 320 |
| CCOC(=O)/C=C/c1cc(C(N)=O)ccc1C [3-(5-Carbamoyl-2-methyl-phenyl)-acrylic acid ethyl ester] | > 100 |
| CN(C)c1ccc(C(=O)/C=C/c2cccc(C(N)=O)c2)cc1 [3-[3-(4-Dimethylamino-phenyl)-3-oxo-propenyl]-benzamide] | > 15 |
| COc1ccc(C(=O)/C=C/c2cccc(C(N)=O)c2)cc1 [3-[3-(4-Methoxy-phenyl)-3-oxo-propenyl]-benzamide] | > 22 |
| CCOC(=O)/C=C/c1cc(CN2CCN(c3ccccn3)CC2)cc(C(N)=O)c1 [3-[3-Carbamoyl-5-(4-pyridin-2-yl-piperazin-1-ylmethyl)-phenyl]-acrylic acid ethyl ester] | 2.5 |
| CCOC(=O)/C=C/c1cc(CSc2nnc(-c3ccccn3)o2)cc(C(N)=O)c1 [3-[3-Carbamoyl-5-(5-pyridin-2-yl-[1,3,4]oxadiazol-2-ylsulfanylmethyl)-phenyl]-acrylic acid ethyl ester] | 5.6 |
| CCOC(=O)/C=C/c1cc(CN2CCN(c3ccccc3C#N)CC2)cc(C(N)=O)c1 [3-{3-Carbamoyl-5-[4-(2-cyano-phenyl)-piperazin-1-ylmethyl]-phenyl}-acrylic acid ethyl ester] | 0.6 |
| CCOC(=O)/C=C/c1cc(CN2CCN(C(=O)OCC)CC2)cc(C(N)=O)c1 [4-[3-Carbamoyl-5-(2-ethoxycarbonyl-vinyl)-benzyl]-piperazine-1-carboxylic acid ethyl ester] | 1.8 |
